Test results from BindingDB's records for doi:10.7270/Q25H7DV5 (Burnham Center For Chemical Genomics, 2011).

Molecular target: DNA dC->dU-editing enzyme APOBEC-3G (Homo sapiens, UniProt Q9HC16)
Assay: APOBEC3G deaminase inhibitors, SAR follow-up, biochemical, fluorescence, single-stranded DNA substrate (AID 602136)
Conditions: 25 °C

Chain of DNA dC->dU-editing enzyme APOBEC-3G (Q9HC16 whole entry): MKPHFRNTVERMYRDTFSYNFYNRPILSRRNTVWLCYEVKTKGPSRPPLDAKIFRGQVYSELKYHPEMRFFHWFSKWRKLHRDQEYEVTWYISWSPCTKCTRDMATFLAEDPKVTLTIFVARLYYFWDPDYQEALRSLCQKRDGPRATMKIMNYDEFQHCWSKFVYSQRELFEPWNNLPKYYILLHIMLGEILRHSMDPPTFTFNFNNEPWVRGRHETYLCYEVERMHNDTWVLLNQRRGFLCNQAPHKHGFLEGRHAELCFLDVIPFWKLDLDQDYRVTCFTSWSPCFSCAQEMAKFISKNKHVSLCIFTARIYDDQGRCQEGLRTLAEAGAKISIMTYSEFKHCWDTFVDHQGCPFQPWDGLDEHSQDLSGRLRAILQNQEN

`CCN1C(SCC(=O)NCc2ccco2)=NNC1=C1C=CC=CC1=O` gave an IC50 of over 99 µM.
Compound `CC1(C)Oc2ccc3ccc(=O)oc3c2C(CN=O)=C1Cl` [9-chloro-2-keto-8,8-dimethyl-pyrano[2,3-f]chromene-10-carbaldehyde oxime] has an IC50 of over 99 µM.
